Tests used:
Experiment in all cases: relative viability (nuclei count vs DMSO), 5 days (fraction); higher = more cells survive
Bosutinib + Navitoclax = compound: COc1cc(Nc2c(C#N)cnc3cc(OCCCN4CCN(C)CC4)c(OC)cc23)c(Cl)cc1Cl [Bosutinib] + CC1(C)CCC(c2ccc(Cl)cc2)=C(CN2CCN(c3ccc(C(=O)NS(=O)(=O)c4ccc(N[C@H](CCN5CCOCC5)CSc5ccccc5)c(S(=O)(=O)C(F)(F)F)c4)cc3)CC2)C1 [Navitoclax] (partner 0.5 µM)
Method in brief: (§1)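 Values are medians from duplicate plates. Each reflects relative viability, defined as the nuclei count of treated wells over that of vehicle wells. Lung cancer cell lines in 1536-well plates were pin-tool dosed one day after seeding with one drug alone or with a fixed anchor-drug dose plus five library-drug doses (not always all listed) in √10 steps, then fixed, stained and imaged at 4× after 5 days.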

Bosutinib + Foretinib = compound: COc1cc(Nc2c(C#N)cnc3cc(OCCCN4CCN(C)CC4)c(OC)cc23)c(Cl)cc1Cl [Bosutinib] + COc1cc2c(Oc3ccc(NC(=O)C4(C(=O)Nc5ccc(F)cc5)CC4)cc3F)ccnc2cc1OCCCN1CCOCC1 [Foretinib] (partner 0.25 µM)
Method in brief: as §1

Bosutinib + Tozasertib = compound: COc1cc(Nc2c(C#N)cnc3cc(OCCCN4CCN(C)CC4)c(OC)cc23)c(Cl)cc1Cl [Bosutinib] + Cc1cc(Nc2cc(N3CCN(C)CC3)nc(Sc3ccc(NC(=O)C4CC4)cc3)n2)n[nH]1 [Tozasertib] (partner 0.1 µM)
Method in brief: as §1

Bosutinib + Dasatinib = compound: COc1cc(Nc2c(C#N)cnc3cc(OCCCN4CCN(C)CC4)c(OC)cc23)c(Cl)cc1Cl [Bosutinib] + Cc1nc(Nc2ncc(C(=O)Nc3c(C)cccc3Cl)s2)cc(N2CCN(CCO)CC2)n1 [Dasatinib] (partner 0.075 µM)
Method in brief: as §1

Bosutinib + Decitabine = compound: COc1cc(Nc2c(C#N)cnc3cc(OCCCN4CCN(C)CC4)c(OC)cc23)c(Cl)cc1Cl [Bosutinib] + Nc1ncn([C@H]2C[C@H](O)[C@@H](CO)O2)c(=O)n1 [Decitabine] (partner 2 µM)
Method in brief: as §1

PC-3 [JPC-3]
relative viability (Bosutinib + Navitoclax; first compound 0.01 µM): 0.856
relative viability (Bosutinib + Navitoclax; first compound 0.03162 µM): 0.797
relative viability (Bosutinib + Navitoclax; first compound 0.1 µM): 0.807
relative viability (Bosutinib + Navitoclax; first compound 1 µM): 0.768
relative viability (Bosutinib + Foretinib; first compound 0.01 µM): 1
relative viability (Bosutinib + Foretinib; first compound 0.03162 µM): 0.993
relative viability (Bosutinib + Foretinib; first compound 0.1 µM): 1.05
relative viability (Bosutinib + Foretinib; first compound 1 µM): 0.759
relative viability (Bosutinib + Tozasertib; first compound 0.01 µM): 0.856
relative viability (Bosutinib + Tozasertib; first compound 0.03162 µM): 0.854
relative viability (Bosutinib + Tozasertib; first compound 0.1 µM): 0.92
relative viability (Bosutinib + Tozasertib; first compound 1 µM): 0.819
relative viability (Bosutinib + Dasatinib; first compound 0.01 µM): 1.04
relative viability (Bosutinib + Dasatinib; first compound 0.03162 µM): 0.931
relative viability (Bosutinib + Dasatinib; first compound 0.1 µM): 0.996
relative viability (Bosutinib + Dasatinib; first compound 1 µM): 0.834
relative viability (Bosutinib + Decitabine; first compound 0.01 µM): 0.883
relative viability (Bosutinib + Decitabine; first compound 0.03162 µM): 0.798
relative viability (Bosutinib + Decitabine; first compound 0.1 µM): 0.826
relative viability (Bosutinib + Decitabine; first compound 1 µM): 0.596

PC-14
relative viability (Bosutinib + Navitoclax; first compound 0.01 µM): 0.967
relative viability (Bosutinib + Navitoclax; first compound 0.03162 µM): 0.975
relative viability (Bosutinib + Navitoclax; first compound 0.1 µM): 1.02
relative viability (Bosutinib + Navitoclax; first compound 1 µM): 0.474
relative viability (Bosutinib + Foretinib; first compound 0.01 µM): 0.963
relative viability (Bosutinib + Foretinib; first compound 0.03162 µM): 0.975
relative viability (Bosutinib + Foretinib; first compound 0.1 µM): 0.98
relative viability (Bosutinib + Foretinib; first compound 1 µM): 0.255
relative viability (Bosutinib + Tozasertib; first compound 0.01 µM): 0.581
relative viability (Bosutinib + Tozasertib; first compound 0.03162 µM): 0.501
relative viability (Bosutinib + Tozasertib; first compound 0.1 µM): 0.473
relative viability (Bosutinib + Tozasertib; first compound 1 µM): 0.208
relative viability (Bosutinib + Dasatinib; first compound 0.01 µM): 0.282
relative viability (Bosutinib + Dasatinib; first compound 0.03162 µM): 0.239
relative viability (Bosutinib + Dasatinib; first compound 0.1 µM): 0.238
relative viability (Bosutinib + Dasatinib; first compound 1 µM): 0.0662
relative viability (Bosutinib + Decitabine; first compound 0.01 µM): 0.248
relative viability (Bosutinib + Decitabine; first compound 0.03162 µM): 0.226
relative viability (Bosutinib + Decitabine; first compound 0.1 µM): 0.224
relative viability (Bosutinib + Decitabine; first compound 1 µM): 0.174

RERF-LC-KJ
relative viability (Bosutinib + Navitoclax; first compound 0.01 µM): 0.845
relative viability (Bosutinib + Navitoclax; first compound 0.03162 µM): 1.08
relative viability (Bosutinib + Navitoclax; first compound 0.1 µM): 0.893
relative viability (Bosutinib + Navitoclax; first compound 1 µM): 0.743
relative viability (Bosutinib + Foretinib; first compound 0.01 µM): 0.893
relative viability (Bosutinib + Foretinib; first compound 0.03162 µM): 0.888
relative viability (Bosutinib + Foretinib; first compound 0.1 µM): 0.815
relative viability (Bosutinib + Foretinib; first compound 1 µM): 0.867
relative viability (Bosutinib + Tozasertib; first compound 0.01 µM): 0.58
relative viability (Bosutinib + Tozasertib; first compound 0.03162 µM): 0.436
relative viability (Bosutinib + Tozasertib; first compound 0.1 µM): 0.491
relative viability (Bosutinib + Tozasertib; first compound 1 µM): 0.599
relative viability (Bosutinib + Dasatinib; first compound 0.01 µM): 0.746
relative viability (Bosutinib + Dasatinib; first compound 0.03162 µM): 0.882
relative viability (Bosutinib + Dasatinib; first compound 0.1 µM): 0.826
relative viability (Bosutinib + Dasatinib; first compound 1 µM): 0.735
relative viability (Bosutinib + Decitabine; first compound 0.01 µM): 0.643
relative viability (Bosutinib + Decitabine; first compound 0.03162 µM): 0.656
relative viability (Bosutinib + Decitabine; first compound 0.1 µM): 0.645
relative viability (Bosutinib + Decitabine; first compound 1 µM): 0.737

SK-LU-1
relative viability (Bosutinib + Navitoclax; first compound 0.01 µM): 0.714
relative viability (Bosutinib + Navitoclax; first compound 0.03162 µM): 0.929
relative viability (Bosutinib + Navitoclax; first compound 0.1 µM): 0.779
relative viability (Bosutinib + Navitoclax; first compound 1 µM): 0.739
relative viability (Bosutinib + Foretinib; first compound 0.01 µM): 0.841
relative viability (Bosutinib + Foretinib; first compound 0.03162 µM): 0.85
relative viability (Bosutinib + Foretinib; first compound 0.1 µM): 0.813
relative viability (Bosutinib + Foretinib; first compound 1 µM): 0.449
relative viability (Bosutinib + Tozasertib; first compound 0.01 µM): 0.305
relative viability (Bosutinib + Tozasertib; first compound 0.03162 µM): 0.289
relative viability (Bosutinib + Tozasertib; first compound 0.1 µM): 0.341
relative viability (Bosutinib + Tozasertib; first compound 1 µM): 0.283
relative viability (Bosutinib + Dasatinib; first compound 0.01 µM): 0.221
relative viability (Bosutinib + Dasatinib; first compound 0.03162 µM): 0.174
relative viability (Bosutinib + Dasatinib; first compound 0.1 µM): 0.186
relative viability (Bosutinib + Dasatinib; first compound 1 µM): 0.255
relative viability (Bosutinib + Decitabine; first compound 0.01 µM): 0.646
relative viability (Bosutinib + Decitabine; first compound 0.03162 µM): 0.644
relative viability (Bosutinib + Decitabine; first compound 0.1 µM): 0.637
relative viability (Bosutinib + Decitabine; first compound 1 µM): 0.548

SK-MES-1
relative viability (Bosutinib + Navitoclax; first compound 0.01 µM): 1.21
relative viability (Bosutinib + Navitoclax; first compound 0.03162 µM): 0.97
relative viability (Bosutinib + Navitoclax; first compound 0.1 µM): 1.1
relative viability (Bosutinib + Navitoclax; first compound 1 µM): 1.3
relative viability (Bosutinib + Foretinib; first compound 0.01 µM): 0.966
relative viability (Bosutinib + Foretinib; first compound 0.03162 µM): 0.955
relative viability (Bosutinib + Foretinib; first compound 0.1 µM): 0.97
relative viability (Bosutinib + Foretinib; first compound 1 µM): 0.747
relative viability (Bosutinib + Tozasertib; first compound 0.01 µM): 0.95
relative viability (Bosutinib + Tozasertib; first compound 0.03162 µM): 0.927
relative viability (Bosutinib + Tozasertib; first compound 0.1 µM): 0.844
relative viability (Bosutinib + Tozasertib; first compound 1 µM): 0.854
relative viability (Bosutinib + Dasatinib; first compound 0.01 µM): 0.372
relative viability (Bosutinib + Dasatinib; first compound 0.03162 µM): 0.412
relative viability (Bosutinib + Dasatinib; first compound 0.1 µM): 0.393
relative viability (Bosutinib + Dasatinib; first compound 1 µM): 0.392
relative viability (Bosutinib + Decitabine; first compound 0.01 µM): 0.412
relative viability (Bosutinib + Decitabine; first compound 0.03162 µM): 0.482
relative viability (Bosutinib + Decitabine; first compound 0.1 µM): 0.428
relative viability (Bosutinib + Decitabine; first compound 1 µM): 0.314

SW 1573
relative viability (Bosutinib + Navitoclax; first compound 0.01 µM): 0.996
relative viability (Bosutinib + Navitoclax; first compound 0.03162 µM): 0.998
relative viability (Bosutinib + Navitoclax; first compound 0.1 µM): 0.979
relative viability (Bosutinib + Navitoclax; first compound 1 µM): 0.919
relative viability (Bosutinib + Foretinib; first compound 0.01 µM): 0.913
relative viability (Bosutinib + Foretinib; first compound 0.03162 µM): 0.825
relative viability (Bosutinib + Foretinib; first compound 0.1 µM): 0.693
relative viability (Bosutinib + Foretinib; first compound 1 µM): 0.858
relative viability (Bosutinib + Tozasertib; first compound 0.01 µM): 0.24
relative viability (Bosutinib + Tozasertib; first compound 0.03162 µM): 0.166
relative viability (Bosutinib + Tozasertib; first compound 0.1 µM): 0.119
relative viability (Bosutinib + Tozasertib; first compound 1 µM): 0.202
relative viability (Bosutinib + Dasatinib; first compound 0.01 µM): 0.459
relative viability (Bosutinib + Dasatinib; first compound 0.03162 µM): 0.553
relative viability (Bosutinib + Dasatinib; first compound 0.1 µM): 0.505
relative viability (Bosutinib + Dasatinib; first compound 1 µM): 0.583
relative viability (Bosutinib + Decitabine; first compound 0.01 µM): 0.606
relative viability (Bosutinib + Decitabine; first compound 0.03162 µM): 0.48
relative viability (Bosutinib + Decitabine; first compound 0.1 µM): 0.557
relative viability (Bosutinib + Decitabine; first compound 1 µM): 0.451

UMC-11
relative viability (Bosutinib + Navitoclax; first compound 0.01 µM): 0.256
relative viability (Bosutinib + Navitoclax; first compound 0.03162 µM): 0.316
relative viability (Bosutinib + Navitoclax; first compound 0.1 µM): 0.333
relative viability (Bosutinib + Navitoclax; first compound 1 µM): 0.33
relative viability (Bosutinib + Foretinib; first compound 0.01 µM): 0.979
relative viability (Bosutinib + Foretinib; first compound 0.03162 µM): 1.07
relative viability (Bosutinib + Foretinib; first compound 0.1 µM): 1.03
relative viability (Bosutinib + Foretinib; first compound 1 µM): 0.94
relative viability (Bosutinib + Tozasertib; first compound 0.01 µM): 0.202
relative viability (Bosutinib + Tozasertib; first compound 0.03162 µM): 0.191
relative viability (Bosutinib + Tozasertib; first compound 0.1 µM): 0.189
relative viability (Bosutinib + Tozasertib; first compound 1 µM): 0.214
relative viability (Bosutinib + Dasatinib; first compound 0.01 µM): 0.409
relative viability (Bosutinib + Dasatinib; first compound 0.03162 µM): 0.454
relative viability (Bosutinib + Dasatinib; first compound 0.1 µM): 0.456
relative viability (Bosutinib + Dasatinib; first compound 1 µM): 0.455
relative viability (Bosutinib + Decitabine; first compound 0.01 µM): 0.661
relative viability (Bosutinib + Decitabine; first compound 0.03162 µM): 0.555
relative viability (Bosutinib + Decitabine; first compound 0.1 µM): 0.596
relative viability (Bosutinib + Decitabine; first compound 1 µM): 0.535

Reference: the supplement of paper PMC10307832
